We go through two compounds from patent US10100097B2, “GIP-GLP-1 dual agonist compounds and methods” (Zealand Pharma A/S, priority 2012, dated 2018).

Numbered stars: 1 amine (or outer) side, 2 acyl side, 3 side chain; on linkers, the order of the positions; unused ones are H or OH. Square brackets hold non-standard residues; d marks the D form. Side chains are listed from the residue outwards. Peptide text beside a SMILES is read from it. * marks the point of attachment. γGlu = O=C(O)[C@H](CCC(=O)[*:2])N[*:1]; Palmitoyl = CCCCCCCCCCCCCCCC(=O)*; Aib = CC(C)(N)C(=O)O

Data set [1] deals with Male C57BL/6J mice. Kind of data set: IPGTT (Intraperitoneal Glucose Tolerance Test) in mice. Type of data set: in vivo. The settings on record: for Effect on glucose tolerance as compared to vehicle: glucose 2 g/kg i.p., peptides s.c., all time points, p<0.05 vs. vehicle. The method, then: IPGTT (Intraperitoneal Glucose Tolerance Test) in Mice
Male C57BL/6J mice (Charles River, Germany) were maintained on normal chow (Altromin 1324, Brogaarden A/S, Gentofte, Denmark) and domestic quality water with added citric acid to pH˜3.6. The animals were housed pair-wise in a light-, temperature-, and humidity-controlled room (12:12 h light-dark cycle, with lights on at 06.00-18.00 hr; 20-22° C.; 50-80% relative humidity). Mice were fasted for 5 hr before the IPGTT. Peptides and vehicle were administered subcutaneously before the intraperitoneal injection of glucose (t=0 min; 2 g/kg; 5 ml/kg). Tail vein blood was sampled at time t=0 (before glucose administration), 15, 30, 45, 60, 90, and 120 min for measurements of blood glucose.

A short description of data set [2]: in vivo. The settings on record: C57BL/6J, mouse, plasma, sc, 200 nmol/kg.
Method: C57BL/6J mice were given a single subcutaneous dose of 200 nmol/kg body weight of each peptide to be tested. Blood samples were drawn 0.5, 2, 4, 6, 8, 16, 24 and 36 hours post-dose by sublingual bleeding. At each time point, samples from two mice were taken, i.e. 16 mice per compound. The mice were euthanized immediately after blood sampling by cervical dislocation. Plasma samples were analyzed after solid phase extraction (SPE) by liquid chromatography mass spectrometry (LC-MS/MS).
Data set [3] has as its target T1, human GLP-1 R (Homo sapiens, UniProt P43220).
T1 construct: expressed in transfected cells
Kind of data set: Human GLP-1 receptor (GLP-1 R) activity assay, cAMP induction (AlphaScreen cAMP kit). Type of data set: cell-based. Conditions: HEK293 cells expressing the human GLP-1 R, 15 min at 37° C., average values of multiple determinations, read-out: GLP1 R (EC50 in nM). A digest of the protocol:
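Stable HEK293 clones expressing human GIP R or GLP-1 R, grown 1 day, washed in Tyrode's buffer (10 mM HEPES, pH 7.4), then stimulated with peptide. Cells lysed and cAMP quantified by AlphaScreen competition with biotinylated cAMP, 1 h dark incubation at room temperature.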

T1 sequence (P43220 24-463): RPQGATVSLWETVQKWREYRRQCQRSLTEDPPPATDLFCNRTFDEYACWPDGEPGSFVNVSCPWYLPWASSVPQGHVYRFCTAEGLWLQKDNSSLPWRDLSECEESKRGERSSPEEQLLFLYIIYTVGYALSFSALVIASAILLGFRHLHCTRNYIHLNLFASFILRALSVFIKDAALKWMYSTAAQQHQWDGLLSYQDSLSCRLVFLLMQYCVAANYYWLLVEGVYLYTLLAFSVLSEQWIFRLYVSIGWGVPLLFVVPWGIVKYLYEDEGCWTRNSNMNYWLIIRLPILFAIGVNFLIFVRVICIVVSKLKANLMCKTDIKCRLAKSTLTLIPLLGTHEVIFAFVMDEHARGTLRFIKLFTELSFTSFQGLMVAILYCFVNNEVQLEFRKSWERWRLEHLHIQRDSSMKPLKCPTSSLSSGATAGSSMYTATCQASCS

Broadly, the half-life is how long it takes for the measured level to halve. A high value points to slow loss. In general, EC50 refers to the concentration at which the effect is half-maximal. `CCCCCCCCCCCCCCCC(=O)N[C@@H](CCC(=O)NCCCC[C@H](NC(=O)[C@H](CCCCN)NC(=O)[C@H](CC(=O)O)NC(=O)[C@H](CC(C)C)NC(=O)C(C)(C)NC(=O)[C@@H](NC(=O)[C@H](CO)NC(=O)[C@H](Cc1ccc(O)cc1)NC(=O)[C@H](CC(=O)O)NC(=O)[C@H](CO)NC(=O)[C@@H](NC(=O)[C@H](Cc1ccccc1)NC(=O)[C@@H](NC(=O)CNC(=O)[C@H](CCC(=O)O)NC(=O)C(C)(C)NC(=O)[C@@H](N)Cc1ccc(O)cc1)[C@@H](C)O)[C@@H](C)O)[C@@H](C)CC)C(=O)N[C@@H](C)C(=O)N[C@@H](CCC(N)=O)C(=O)N[C@@H](CCCNC(=N)N)C(=O)N[C@@H](C)C(=O)N[C@@H](Cc1ccccc1)C(=O)N[C@H](C(=O)N[C@@H](CCC(=O)O)C(=O)N[C@@H](Cc1c[nH]c2ccccc12)C(=O)N[C@@H](CC(C)C)C(=O)N[C@@H](CC(C)C)C(=O)N[C@@H](C)C(=O)N[C@@H](CCC(N)=O)C(=O)NCC(=O)N1CCC[C@H]1C(=O)N[C@@H](CO)C(=O)N[C@@H](CO)C(=O)NCC(=O)N[C@@H](C)C(=O)N1CCC[C@H]1C(=O)N1CCC[C@H]1C(=O)N1CCC[C@H]1C(=O)N[C@@H](CO)C(N)=O)C(C)C)C(=O)O` [Compound 32] (H-Y[Aib]EGTFTSDYSI[Aib]LDKK([γGlu-Palmitoyl])AQRAFVEWLLAQGPSSGAPPPS-NH2): the “Effect on glucose tolerance as compared to vehicle” value in data set [1] is reported as “significantly improved glucose tolerance”. The half-life in data set [2] is 3.4 h. In data set [3], the EC50 was determined as 0.018 nM.
`CCCCCCCCCCCCCCCC(=O)N[C@@H](CCC(=O)NCCCC[C@H](NC(=O)[C@H](CCCCN)NC(=O)[C@H](CC(=O)O)NC(=O)[C@H](CC(C)C)NC(=O)[C@H](Cc1ccc(O)cc1)NC(=O)[C@@H](NC(=O)[C@H](CO)NC(=O)[C@H](Cc1ccc(O)cc1)NC(=O)[C@H](CC(=O)O)NC(=O)[C@H](CO)NC(=O)[C@@H](NC(=O)[C@H](Cc1ccccc1)NC(=O)[C@@H](NC(=O)CNC(=O)[C@H](CCC(=O)O)NC(=O)C(C)(C)NC(=O)[C@@H](N)Cc1ccc(O)cc1)[C@@H](C)O)[C@@H](C)O)[C@@H](C)CC)C(=O)N[C@@H](C)C(=O)N[C@@H](CCC(N)=O)C(=O)N[C@@H](CCCNC(=N)N)C(=O)N[C@@H](C)C(=O)N[C@@H](Cc1ccccc1)C(=O)N[C@H](C(=O)N[C@@H](CCC(=O)O)C(=O)N[C@@H](Cc1c[nH]c2ccccc12)C(=O)N[C@@H](CC(C)C)C(=O)N[C@@H](CC(C)C)C(=O)N[C@@H](C)C(=O)N[C@@H](CCC(N)=O)C(=O)NCC(=O)N1CCC[C@H]1C(=O)N[C@@H](CO)C(=O)N[C@@H](CO)C(=O)NCC(=O)N[C@@H](C)C(=O)N1CCC[C@H]1C(=O)N1CCC[C@H]1C(=O)N1CCC[C@H]1C(=O)N[C@@H](CO)C(N)=O)C(C)C)C(=O)O` [Compound 33] (H-Y[Aib]EGTFTSDYSIYLDKK([γGlu-Palmitoyl])AQRAFVEWLLAQGPSSGAPPPS-NH2): in data set [1], the “Effect on glucose tolerance as compared to vehicle” value is reported as “significantly improved glucose tolerance”. For the same compound, in data set [1] (time t=60 min, p<0.05 vs. liraglutide), the “Reduction in blood glucose compared with liraglutide” value is “statistically significant greater reduction”. Further, the half-life in data set [2] was 3.7 h. Further, in data set [3], the EC50 was 0.031 nM.
